Series [1] deals with RSV. The series can be described thus: XTT assay, RSV-infected Hep-2 cells. It is filed as cell-based, Respiratory Syncytial Virus (RSV). The following applies: Table 2, Examples 75 to 82 and 125 to 184, Hep-2 cells infected with RSV, 6 days at 37° C. As to the method:
Examples 75 to 82 and 125 to 184 were tested according to the protocol described below.
(§1) The inner 60 wells of 96 well tissue culture plates were seeded with Hep-2 cells at 4×10^4 cells/well for compound activity and toxicity studies in 100 μl of medium and incubated at 37° C. overnight or until nearing confluency.
Cells were infected with 25 μl RSV previously titrated to give 80% cell kill. To each well 25 μM of test compound were added. The final DMSO concentration was 0.5%. Some 200 μl of sterile distilled water were added to the outer wells of the plate and incubated at 37° C. for 6 days. Some 0.25 μl/ml PMS were added to stock […] solution, final conc. 25 μM PMS. Then 25 μl warmed XTT/PMS solution were added to each well and incubated for 1 hour at 37° C.
Maximum OD450nm reading (uninfected, untreated control cells) corresponded to 100% inhibition. Minimum OD450nm readings (infected control cells) corresponded to 0% inhibition. Log 10 concentration was plotted against OD450nm and IC50 values were calculated from either reading 50% value from graph or using regression analysis.
On the technique in general: Tetrazolium assays rely on reduction of a dye to a coloured formazan, in cell work by metabolically active cells.

Series [2] has as its system Hep-2 cells. The series can be described thus: Toxicity studies (XTT), Hep-2 cells. The following applies: for TC50 (2d): Table 2, Examples 75 to 82 and 125 to 184, 2d; for TC50 (6d): Table 2, Examples 75 to 82 and 125 to 184, 6d, in µM. It is filed as cell-based. Also noted: TC50 (6d): unit not given beside the values. On the procedure: as §1
Cells were infected with 25 μl RSV previously titrated to give 80% cell kill. To each well 25 μM of test compound were added. The final DMSO concentration was 0.5%. […] Some 0.25 μl/ml PMS were added to stock […] solution, final conc. 25 μM PMS. Then 25 μl warmed XTT/PMS solution were added to each well and incubated for 1 hour at 37° C.

Where [3] appears, read: human respiratory syncytial virus, 144 h.

This note sets out measurements from patent publication US8119630B2 (Arrow Therapeutics Limited, priority 2002, dated 2012).

Bounds are passed on as bounds.

Broadly, the IC50 is the concentration at which inhibition is half-maximal.

The molecule `Cc1ccc2c(c1)NC(=O)C(NC(=O)c1cccs1)N=C2c1ccccc1` (stereo not shown) [Example 169, Thiophene-2-carboxylic acid (8-methyl-2-oxo-5-phenyl-2,3-dihydro-1H-benzo[e][1,4]diazepin-3-yl)-amide] gave a concentration for half-maximal inhibition (IC50) in series [1] (setting [3]) of 5 µM. Besides, in series [2], the TC50 (2d) came out at 50 µM and the “TC50 (6d)” value came to 30.
On to “Cyclohexanecarboxylic acid [5-(3-methoxy-phenyl)-2-oxo-5-phenyl-2,3-dihydro-1H-benzo[e][1,4]diazepin-3-yl]-amide [Example 165]”, for which the half-inhibitory concentration (IC50) in series [1] is 2 µM. In addition, in series [2], the TC50 (2d) is over 100 µM and the “TC50 (6d)” value is reported as over 100.
As for `O=C(Nc1cccs1)NC1N=C(c2ccccc2)c2ccccc2NC1=O` (stereo not shown) [Example 170, 1-(2-Oxo-5-phenyl-2,3-dihydro-1H-benzo[e][1,4]diazepin-3-yl)-3-thiophene-2-yl-urea], the IC50 in series [1] (setting [3]) is 3.4 µM. Moreover, in series [2], the “TC50 (6d)” value is on record as over 50.
As to `CC(C)(C)NC(=O)NC1N=C(c2ccccc2)c2ccccc2NC1=O` (stereo not shown) [Example 148, 1-tert-Butyl-3-(2-oxo-5-phenyl-2,3-dihydro-1H-benzo[e][1,4]diazepin-3-yl)-urea], the concentration for half-maximal inhibition (IC50) in series [1] (setting [3]) came to 5 µM. In addition, in series [2], the TC50 (2d) was over 100 µM and the “TC50 (6d)” value is reported as over 100.
`O=C(N[C@H]1N=C(c2ccccc2)c2ccccc2NC1=O)c1cc2ccccc2o1` [Example 180, (S)-Benzofuran-2-carboxylic acid (2-oxo-5-phenyl-2,3-dihydro-1H-benzo[e][1,4]diazepin-3-yl)-amide]: in series [1] (setting [3]), the half-inhibitory concentration (IC50) amounted to 2.6 µM. Moreover, in series [2], the “TC50 (6d)” value is reported as 37.1.
Molecule `O=C(N[C@H]1N=C(c2ccccc2)c2ccccc2NC1=O)c1cc(F)cc2c1OCOC2` [Example 77b, (S)-6-Fluoro-4H-benzo[1,3]dioxine-8-carboxylic acid (2-oxo-5-phenyl-2,3-dihydro-1H-benzo[e][1,4]diazepin-3-yl)-amide] had an IC50 in series [1] (setting [3]) of 0.5 µM. Besides, the “TC50 (6d)” value in series [2] was determined as 33.2.
`O=C(N[C@H]1N=C(c2ccccc2)c2ccccc2NC1=O)c1cc(Br)c(Br)o1` [Example 179, (S)-4,5-Dibromo-furan-2-carboxylic acid (2-oxo-5-phenyl-2,3-dihydro-1H-benzo[e][1,4]diazepin-3-yl)-amide] displayed an IC50 in series [1] (setting [3]) of 3.9 µM. In series [2], the “TC50 (6d)” value was over 50.
Molecule “Piperidine-1-carboxylic acid [5-(3-chloro-phenyl)-2-oxo-5-phenyl-2,3-dihydro-1H-benzo[e][1,4]diazepin-3-yl]-amide [Example 159]” gave an IC50 in series [1] of 2 µM. In series [2], the TC50 (2d) is over 100 µM and the “TC50 (6d)” value was over 100.
The like results for “Piperidine-4-carboxylic acid [5-(3-methoxy-phenyl)-2-oxo-5-phenyl-2,3-dihydro-1H-benzo[e][1,4]diazepin-3-yl]-amide [Example 167]” were, in that order, 9 µM, over 100 µM and over 100.
With `COc1cc(S(C)(=O)=O)ccc1C(=O)N[C@H]1N=C(c2ccccc2)c2ccccc2NC1=O` [Example 75b, (S)-4-Methanesulfonyl-2-methoxy-N-(2-oxo-5-phenyl-2,3-dihydro-1H-benzo[e][1,4]diazepin-3-yl)-benzamide], the IC50 in series [1] (setting [3]) is 0.6 µM. For the same molecule, the “TC50 (6d)” value in series [2] is over 50.
Turning to “Piperidine-1-carboxylic acid [5-(3-methoxy-phenyl)-2-oxo-5-phenyl-2,3-dihydro-1H-benzo[e][1,4]diazepin-3-yl]-amide [Example 166]”, the IC50 in series [1] came to 5 µM. In series [2], the TC50 (2d) was over 100 µM and the “TC50 (6d)” value is over 100.
The like results for “Thiophene-2-carboxylic acid [5-(3-chloro-phenyl)-2-oxo-5-phenyl-2,3-dihydro-1H-benzo[e][1,4]diazepin-3-yl]-amide [Example 157]” were, in that order, 5 µM, over 100 µM and 100.
